Earlier results as cited in US11566140B2, “Exterior coating composition” (Troy Corporation, priority 2019, dated 2023).

Conditions: 5 grams of pure BIT completely soluble in 100 ml of methanol

O=c1[nH]sc2ccccc12 [BIT, 1,2-benzisothiazolin-3-one]
solubility in methanol: greater than 5%
